# ChEMBL document CHEMBL1201861, “Genomics of Drug Sensitity in Cancer screening data, Wellcome Trust Sanger Institute”
# Test system: TE-11;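 also: growth inhibition of human TE-11 cells, read out by a cell viability assay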
# Assay: cells
# Format: functional, cell-based
# Details: Homo sapiens
row,Structure (SMILES),IC50
1,COc1cc(N2CCC(N3CCN(C)CC3)CC2)ccc1Nc1ncc(Cl)c(Nc2ccccc2S(=O)(=O)C(C)C)n1 [TAE-684],0.161 µM

# Test system: RS4-11;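 also: growth inhibition of RS4-11 cells, read out by a cell viability assay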
# Assay: cells
# Format: functional, cell-based, Homo sapiens
# Details: Homo sapiens, RS4-11
# Description: SANGER: Inhibition of human RS4-11 cell growth in a cell viability assay.
row,Structure (SMILES),IC50
1,COc1cc(N2CCC(N3CCN(C)CC3)CC2)ccc1Nc1ncc(Cl)c(Nc2ccccc2S(=O)(=O)C(C)C)n1 [TAE-684],> 2 µM

# Test system: NCI-H1092;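 also: cell growth inhibition measured with a cell viability assay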
# Assay: cells
# Format: functional, cell-based, Homo sapiens
# Details: Homo sapiens, NCI-H1092
# Description: SANGER: Inhibition of human NCI-H1092 cell growth in a cell viability assay.
row,Structure (SMILES),IC50
1,COc1cc(N2CCC(N3CCN(C)CC3)CC2)ccc1Nc1ncc(Cl)c(Nc2ccccc2S(=O)(=O)C(C)C)n1 [TAE-684],> 2 µM

# Test system: NCI-H1648;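 also: cell viability assay measuring inhibition of NCI-H1648 cell growth, from the Sanger screening data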
# Assay: cells
# Format: functional, cell-based, Homo sapiens
# Details: Homo sapiens, NCI-H1648
# Description: SANGER: Inhibition of human NCI-H1648 cell growth in a cell viability assay.
row,Structure (SMILES),IC50
1,COc1cc(N2CCC(N3CCN(C)CC3)CC2)ccc1Nc1ncc(Cl)c(Nc2ccccc2S(=O)(=O)C(C)C)n1 [TAE-684],0.279 µM

# Test system: TGBC1TKB;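 also: growth inhibition of TGBC1TKB cells, read out by a cell viability assay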
# Assay: cells
# Format: functional, cell-based, Homo sapiens
# Details: Homo sapiens, TGBC1TKB
# Description: SANGER: Inhibition of human TGBC1TKB cell growth in a cell viability assay.
row,Structure (SMILES),IC50
1,COc1cc(N2CCC(N3CCN(C)CC3)CC2)ccc1Nc1ncc(Cl)c(Nc2ccccc2S(=O)(=O)C(C)C)n1 [TAE-684],> 2 µM

# Test system: KNS-81-FD;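 also: growth inhibition of KNS-81-FD cells, read out with a cell viability assay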
# Assay: cells
# Format: functional, cell-based, Homo sapiens
# Details: Homo sapiens, KNS-81-FD
# Description: SANGER: Inhibition of human KNS-81-FD cell growth in a cell viability assay.
row,Structure (SMILES),IC50
1,COc1cc(N2CCC(N3CCN(C)CC3)CC2)ccc1Nc1ncc(Cl)c(Nc2ccccc2S(=O)(=O)C(C)C)n1 [TAE-684],> 2 µM

# Test system: KARPAS-299
# Assay: cells
# Format: functional, cell-based, Homo sapiens
# Details: Homo sapiens, KARPAS-299
# Description: SANGER: Inhibition of human KARPAS-299 cell growth in a cell viability assay.
row,Structure (SMILES),IC50
1,COc1cc(N2CCC(N3CCN(C)CC3)CC2)ccc1Nc1ncc(Cl)c(Nc2ccccc2S(=O)(=O)C(C)C)n1 [TAE-684],0.0238 µM

# Test system: TE-5;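 also: inhibition of cell growth, read out by a cell viability assay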
# Assay: cells
# Format: functional, cell-based, Homo sapiens
# Details: Homo sapiens, TE-5
# Description: SANGER: Inhibition of human TE-5 cell growth in a cell viability assay.
row,Structure (SMILES),IC50
1,COc1cc(N2CCC(N3CCN(C)CC3)CC2)ccc1Nc1ncc(Cl)c(Nc2ccccc2S(=O)(=O)C(C)C)n1 [TAE-684],> 2 µM

# Test system: ES1;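 also: growth inhibition of ES1 cells, read out with a cell viability assay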
# Assay: cells
# Format: functional, cell-based, Homo sapiens
# Details: Homo sapiens, ES1
# Description: SANGER: Inhibition of human ES1 cell growth in a cell viability assay.
row,Structure (SMILES),IC50
1,COc1cc(N2CCC(N3CCN(C)CC3)CC2)ccc1Nc1ncc(Cl)c(Nc2ccccc2S(=O)(=O)C(C)C)n1 [TAE-684],> 2 µM

# Test system: UACC-257
# Assay: cells
# Format: functional, cell-based, Homo sapiens
# Details: Homo sapiens, UACC-257
# Description: SANGER: Inhibition of human UACC-257 cell growth in a cell viability assay.
row,Structure (SMILES),IC50
1,COc1cc(N2CCC(N3CCN(C)CC3)CC2)ccc1Nc1ncc(Cl)c(Nc2ccccc2S(=O)(=O)C(C)C)n1 [TAE-684],> 2 µM

# Test system: SNU1;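 also: growth inhibition of human NCI-SNU-1 cells, measured with a cell viability assay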
# Assay: cells
# Format: functional, cell-based, Homo sapiens
# Details: Homo sapiens, SNU1
# Description: SANGER: Inhibition of human NCI-SNU-1 cell growth in a cell viability assay.
row,Structure (SMILES),IC50
1,COc1cc(N2CCC(N3CCN(C)CC3)CC2)ccc1Nc1ncc(Cl)c(Nc2ccccc2S(=O)(=O)C(C)C)n1 [TAE-684],> 2 µM

# Test system: HCE-4;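 also: cell viability assay measuring inhibition of growth in the human HCE-4 cell line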
# Assay: cells
# Format: functional, cell-based
# Details: Homo sapiens
# Description: SANGER: Inhibition of human HCE-4 cell growth in a cell viability assay.
row,Structure (SMILES),IC50
1,COc1cc(N2CCC(N3CCN(C)CC3)CC2)ccc1Nc1ncc(Cl)c(Nc2ccccc2S(=O)(=O)C(C)C)n1 [TAE-684],1.61 µM

# Test system: KM12;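 also: KM12 cell growth inhibition, read out with a cell viability assay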
# Assay: cells
# Format: functional, cell-based, Homo sapiens
# Details: Homo sapiens, KM12
# Description: SANGER: Inhibition of human KM12 cell growth in a cell viability assay.
row,Structure (SMILES),IC50
1,COc1cc(N2CCC(N3CCN(C)CC3)CC2)ccc1Nc1ncc(Cl)c(Nc2ccccc2S(=O)(=O)C(C)C)n1 [TAE-684],> 2 µM

# Test system: KG-1;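 also: growth inhibition of KG-1 cells, read out by a cell viability assay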
# Assay: cells
# Format: functional, cell-based, Homo sapiens
# Details: Homo sapiens, KG-1
# Description: SANGER: Inhibition of human KG-1 cell growth in a cell viability assay.
row,Structure (SMILES),IC50
1,COc1cc(N2CCC(N3CCN(C)CC3)CC2)ccc1Nc1ncc(Cl)c(Nc2ccccc2S(=O)(=O)C(C)C)n1 [TAE-684],0.396 µM

# Test system: EW-1;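 also: growth inhibition of the human EW-1 cell line, read out by a cell viability assay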
# Assay: cells
# Format: functional, cell-based, Homo sapiens
# Details: Homo sapiens, EW-1
# Description: SANGER: Inhibition of human EW-1 cell growth in a cell viability assay.
row,Structure (SMILES),IC50
1,COc1cc(N2CCC(N3CCN(C)CC3)CC2)ccc1Nc1ncc(Cl)c(Nc2ccccc2S(=O)(=O)C(C)C)n1 [TAE-684],0.103 µM

# Test system: KALS-1;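 also: growth inhibition of KALS-1 cells, determined with a cell viability assay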
# Assay: cells
# Format: functional, cell-based, Homo sapiens
# Details: Homo sapiens, KALS-1; read-out: IC50
# Description: SANGER: Inhibition of human KALS-1 cell growth in a cell viability assay.
row,Structure (SMILES),IC50
1,COc1cc(N2CCC(N3CCN(C)CC3)CC2)ccc1Nc1ncc(Cl)c(Nc2ccccc2S(=O)(=O)C(C)C)n1 [TAE-684],1.34 µM

# Test system: NCI-H446;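 also: growth inhibition of NCI-H446 cells determined by a cell viability assay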
# Assay: cells
# Format: functional, cell-based, Homo sapiens
# Details: Homo sapiens, NCI-H446
# Description: SANGER: Inhibition of human NCI-H446 cell growth in a cell viability assay.
row,Structure (SMILES),IC50
1,COc1cc(N2CCC(N3CCN(C)CC3)CC2)ccc1Nc1ncc(Cl)c(Nc2ccccc2S(=O)(=O)C(C)C)n1 [TAE-684],> 2 µM

# Test system: OCI-AML2;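 also: growth inhibition of OCI-AML2 cells, read out with a cell viability assay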
# Assay: cells
# Format: functional, cell-based, Homo sapiens
# Details: Homo sapiens, OCI-AML2
# Description: SANGER: Inhibition of human OCI-AML2 cell growth in a cell viability assay.
row,Structure (SMILES),IC50
1,COc1cc(N2CCC(N3CCN(C)CC3)CC2)ccc1Nc1ncc(Cl)c(Nc2ccccc2S(=O)(=O)C(C)C)n1 [TAE-684],0.483 µM

# Test system: MN-60;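 also: growth inhibition of the MN-60 cell line, determined with a cell viability assay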
# Assay: cells
# Format: functional, cell-based, Homo sapiens
# Details: Homo sapiens, MN-60
# Description: SANGER: Inhibition of human MN-60 cell growth in a cell viability assay.
row,Structure (SMILES),IC50
1,COc1cc(N2CCC(N3CCN(C)CC3)CC2)ccc1Nc1ncc(Cl)c(Nc2ccccc2S(=O)(=O)C(C)C)n1 [TAE-684],> 2 µM

# Test system: KY821;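 also: growth inhibition of human KY821 cells, read out by a cell viability assay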
# Assay: cells
# Format: functional, cell-based, Homo sapiens
# Details: Homo sapiens, KY821
# Description: SANGER: Inhibition of human KY821 cell growth in a cell viability assay.
row,Structure (SMILES),IC50
1,COc1cc(N2CCC(N3CCN(C)CC3)CC2)ccc1Nc1ncc(Cl)c(Nc2ccccc2S(=O)(=O)C(C)C)n1 [TAE-684],> 2 µM

# Test system: NCI-H526;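 also: growth inhibition of the human NCI-H526 cell line, measured by a cell viability assay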
# Assay: cells
# Format: functional, cell-based, Homo sapiens
# Details: Homo sapiens, NCI-H526
# Description: SANGER: Inhibition of human NCI-H526 cell growth in a cell viability assay.
row,Structure (SMILES),IC50
1,COc1cc(N2CCC(N3CCN(C)CC3)CC2)ccc1Nc1ncc(Cl)c(Nc2ccccc2S(=O)(=O)C(C)C)n1 [TAE-684],> 2 µM

# Test system: D-247MG
# Assay: cells
# Format: functional, cell-based
# Details: Homo sapiens
# Description: SANGER: Inhibition of human D-247MG cell growth in a cell viability assay.
row,Structure (SMILES),IC50
1,COc1cc(N2CCC(N3CCN(C)CC3)CC2)ccc1Nc1ncc(Cl)c(Nc2ccccc2S(=O)(=O)C(C)C)n1 [TAE-684],> 2 µM

# Test system: NCI-H1770;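 also: growth inhibition of NCI-H1770 cells determined with a viability readout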
# Assay: cells
# Format: functional, cell-based, Homo sapiens
# Details: Homo sapiens, NCI-H1770
# Description: SANGER: Inhibition of human NCI-H1770 cell growth in a cell viability assay.
row,Structure (SMILES),IC50
1,COc1cc(N2CCC(N3CCN(C)CC3)CC2)ccc1Nc1ncc(Cl)c(Nc2ccccc2S(=O)(=O)C(C)C)n1 [TAE-684],> 2 µM

# Test system: LU-134-A
# Assay: cells
# Format: functional, cell-based, Homo sapiens
# Details: Homo sapiens, LU-134-A
# Description: SANGER: Inhibition of human LU-134-A cell growth in a cell viability assay.
row,Structure (SMILES),IC50
1,COc1cc(N2CCC(N3CCN(C)CC3)CC2)ccc1Nc1ncc(Cl)c(Nc2ccccc2S(=O)(=O)C(C)C)n1 [TAE-684],0.839 µM

# Test system: LC-2-ad;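 also: growth inhibition of human LC-2-ad cells, read out with a cell viability assay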
# Assay: cells
# Format: functional, cell-based, Homo sapiens
# Details: Homo sapiens, LC-2-ad
# Description: SANGER: Inhibition of human LC-2-ad cell growth in a cell viability assay.
row,Structure (SMILES),IC50
1,COc1cc(N2CCC(N3CCN(C)CC3)CC2)ccc1Nc1ncc(Cl)c(Nc2ccccc2S(=O)(=O)C(C)C)n1 [TAE-684],0.197 µM
